Source: US20200278355A1, “CONJUGATED PROTEINS AND USES THEREOF” (THE SCRIPPS RESEARCH INSTITUTE, priority 2017, published 2020)

Assays:
Format in all cases: cell-based
SCP2 = molecular target: T1, SCP2 (Homo sapiens, UniProt P22307); assay: isoTOP-ABPP of compound-treated H460 cells: SCP2; settings: SCP2 C94; 40 μM
T1 construct: H460 cells or H460 cells expressing luciferase in a 10 cm plate were incubated with indicated compounds; endogenous in cells; host or cells: H460
Method: (§1) For analysis of NR0B1 ligands or control compound reactivity, H460 cells or H460 cells expressing luciferase in a 10 cm plate were incubated with indicated compounds in serum/dye-free RPMI for 3 hours at 37° C. Cells were washed once ice-cold PBS and lysed in 1% Triton X-100 dissolved in PBS with protease inhibitors (Sigma) by sonication. Samples were clarified by centrifugation for 10 min at 16,000×g. Lysate was adjusted to 1.5 mg ml^−1 in 500 μL.
(§2) Samples were labeled for 1 h at ambient temperature with 100 μM iodoacetamide alkyne (1, IA-alkyne, 5 μL of 10 mM stock in DMSO). Samples were conjugated by copper-catalyzed azide-alkyne cycloaddition (CuAAC) to isotopically labeled, TEV-cleavable tags (TEV-tags). Heavy CuAAC reaction mixtures was added to the DMSO-treated or shGFP control samples and light CuAAC reaction mixture was added to compound-treated or shNRF2 samples. The CuAAC reaction mixture consisted of TEV tags (light or heavy, 10 μL of 5 mM stocks in DMSO, final concentration=100 μM), 1 mM tris(2-carboxyethyl)phosphine hydrochloride (TCEP; fresh 50× stock in water, final concentration=1 mM), ligand (17× stock in DMSO:t-butanol 1:4, final concentration=100 μM) and 1 mM CuSO4 (50× stock in water, final concentration=1 mM). The samples were allowed to react for 1 h at which point the samples were centrifuged (16,000×g, 5 min, 4° C.). […]

TXNDC12 = molecular target: T2, TXNDC12 (Homo sapiens, UniProt O95881); assay: isoTOP-ABPP of compound-treated H460 cells: TXNDC12; settings: TXNDC12 C66; 40 μM
T2 construct: endogenous in cells; host or cells: H460
T2 sequence (O95881 27-172): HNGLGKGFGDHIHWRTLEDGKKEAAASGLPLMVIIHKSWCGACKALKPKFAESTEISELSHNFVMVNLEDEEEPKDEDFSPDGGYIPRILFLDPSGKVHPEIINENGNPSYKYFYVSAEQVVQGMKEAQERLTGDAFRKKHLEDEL
Method: as §1, §2

TXN2 = molecular target: T3, TXN2 (Homo sapiens, UniProt Q99757); assay: isoTOP-ABPP of compound-treated H460 cells: TXN2; settings: TXN2 C90; 40 μM
T3 construct: H460 cells or H460 cells expressing luciferase in a 10 cm plate were incubated with indicated compounds; endogenous in cells; host or cells: H460
T3 sequence (Q99757 60-166): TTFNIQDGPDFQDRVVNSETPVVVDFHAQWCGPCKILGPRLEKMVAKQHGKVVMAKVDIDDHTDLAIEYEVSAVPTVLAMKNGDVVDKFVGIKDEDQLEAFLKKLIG
Method: as §1, §2

T1 sequence (P22307 whole entry): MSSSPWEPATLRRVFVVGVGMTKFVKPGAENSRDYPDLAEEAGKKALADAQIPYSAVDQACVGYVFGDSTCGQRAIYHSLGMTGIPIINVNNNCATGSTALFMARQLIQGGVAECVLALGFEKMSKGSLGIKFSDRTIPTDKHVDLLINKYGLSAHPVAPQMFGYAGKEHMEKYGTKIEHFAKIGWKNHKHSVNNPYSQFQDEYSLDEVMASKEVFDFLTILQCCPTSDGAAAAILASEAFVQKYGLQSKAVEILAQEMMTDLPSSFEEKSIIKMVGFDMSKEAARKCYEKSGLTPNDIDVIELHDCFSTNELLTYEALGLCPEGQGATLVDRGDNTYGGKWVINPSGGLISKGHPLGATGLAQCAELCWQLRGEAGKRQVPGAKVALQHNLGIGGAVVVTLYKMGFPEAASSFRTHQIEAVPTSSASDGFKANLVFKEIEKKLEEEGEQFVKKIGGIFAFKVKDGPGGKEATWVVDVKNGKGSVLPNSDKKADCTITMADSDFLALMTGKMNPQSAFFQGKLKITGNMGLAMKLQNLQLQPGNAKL

Structure (SMILES): O=C(c1ccc(N2CCOCC2)cc1)N1CCCC(N(Cc2ccccc2)C(=O)CCl)CC1 (stereo not drawn) [BPK-29, N-benzyl-2-chloro-N-(1-(4-morpholinobenzoyl)azepan-4-yl)acetamide]
- BPK-29-competed isoTOP-ABPP analysis (SCP2): Yes (Competed defined as showing R value ≥ 3.0 at 40 μM of test compound)
- BPK-29-competed isoTOP-ABPP analysis (TXNDC12): Yes (Competed defined as showing R value ≥ 3.0 at 40 μM of test compound)
- BPK-29-competed isoTOP-ABPP analysis (TXN2): Yes (Competed defined as showing R value ≥ 3.0 at 40 μM of test compound)
